Measured values from ChEMBL document CHEMBL1201862, “PubChem BioAssay data set” (2004).
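Five concentrations, 48 hours, 96-well plates. Here, GI50 denotes the concentration required for 50% inhibition of growth.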 The source made the active and inactive calls. No stated cut-off is given here; in the data, active = GI50 up to about 1.1 µM and inactive = higher.

Columns and labels:
Experiment in all cases: NCI anticancer screen, dose series, 48 h
786-0 = system: 786-0
A498 = system: A498
A549 = system: A549
ACHN = system: ACHN
BT-549 = system: BT-549
CAKI-1 = system: CAKI-1
CCRF-CEM = system: CCRF-CEM
COLO 205 = system: COLO 205
DU-145 = system: DU-145
EKVX = system: EKVX
HCC 2998 = system: HCC 2998
HCT-116 = system: HCT-116
HCT-15 = system: HCT-15
HL-60 = system: HL-60
HOP-62 = system: HOP-62
HOP-92 = system: HOP-92
HT-29 = system: HT-29
Hs-578T = system: Hs-578T
IGROV-1 = system: IGROV-1
K562 = system: K562
KM12 = system: KM12
LOX IMVI = system: LOX IMVI
MCF7 = system: MCF7
MDA-MB-231 = system: MDA-MB-231
MDA-MB-435 = system: MDA-MB-435
MDA-N = system: MDA-N
MOLT-4 = system: MOLT-4
Malme-3M = system: Malme-3M
NCI-H226 = system: NCI-H226
NCI-H23 = system: NCI-H23
NCI-H460 = system: NCI-H460
NCI-H522 = system: NCI-H522
NCI/ADR-RES = system: NCI/ADR-RES
OVCAR-3 = system: OVCAR-3
OVCAR-4 = system: OVCAR-4
OVCAR-5 = system: OVCAR-5
OVCAR-8 = system: OVCAR-8
PC-3 = system: PC-3
RPMI-8226 = system: RPMI-8226
RXF 393 = system: RXF 393
SF-268 = system: SF-268
SF-295 = system: SF-295
SF-539 = system: SF-539
SK-MEL-28 = system: SK-MEL-28
SK-MEL-5 = system: SK-MEL-5
SN12C = system: SN12C
SNB-19 = system: SNB-19
SNB-75 = system: SNB-75
SR = system: SR
SW-620 = system: SW-620
TK-10 = system: TK-10
U-251 = system: U-251
UACC-257 = system: UACC-257
UO-31 = system: UO-31
SK-MEL-2 = system: SK-MEL-2
SK-OV-3 = system: SK-OV-3
T47D = system: T47D
UACC-62 = system: UACC-62

Measured: GI50

O=C(Nc1nc(C23CC4CC(CC(C4)C2)C3)cs1)c1cc2ccccc2oc1=O
inactive: 786-0 > 100 µM | A498 > 100 µM | A549 38.2 µM | ACHN > 100 µM | BT-549 > 100 µM | CAKI-1 > 100 µM | CCRF-CEM > 100 µM | COLO 205 > 100 µM | DU-145 > 100 µM | EKVX > 100 µM | HCC 2998 > 100 µM | HCT-116 > 100 µM | HL-60 > 100 µM | HOP-62 > 100 µM | HOP-92 > 100 µM | HT-29 > 100 µM | Hs-578T > 100 µM | IGROV-1 > 100 µM | K562 > 100 µM | KM12 > 100 µM | LOX IMVI > 100 µM | MCF7 > 100 µM | MDA-MB-231 > 100 µM | MDA-MB-435 > 100 µM | MDA-N > 100 µM | MOLT-4 > 100 µM | Malme-3M > 100 µM | NCI-H226 > 100 µM | NCI-H23 > 100 µM | NCI-H460 > 100 µM | NCI-H522 > 100 µM | NCI/ADR-RES > 100 µM | OVCAR-3 > 100 µM | OVCAR-4 > 100 µM | OVCAR-5 > 100 µM | OVCAR-8 > 100 µM | PC-3 > 100 µM | RPMI-8226 > 100 µM | RXF 393 > 100 µM | SF-268 > 100 µM | SF-295 > 100 µM | SF-539 > 100 µM | SK-MEL-28 > 100 µM | SK-MEL-5 > 100 µM | SN12C > 100 µM | SNB-19 > 100 µM | SNB-75 > 100 µM | SR > 100 µM | SW-620 > 100 µM | TK-10 > 100 µM | U-251 > 100 µM | UACC-257 > 100 µM | UO-31 > 100 µM
> 100 µM: HCT-15

COc1cc2c3c(c4cc(OC)c(OC)cc4c2cc1OC)C(=O)C1CCC(=O)N1C3 (stereo not given)
inactive: A498 14.9 µM | ACHN 5.86 µM | BT-549 14.8 µM | CAKI-1 8.75 µM | CCRF-CEM 6.64 µM | COLO 205 24.5 µM | DU-145 11.5 µM | HCC 2998 21.7 µM | HL-60 41.3 µM | HOP-62 13.6 µM | HOP-92 12 µM | Hs-578T 3.3 µM | IGROV-1 2.43 µM | K562 14 µM | KM12 70.1 µM | LOX IMVI 24.9 µM | MCF7 11.9 µM | MDA-MB-231 55.5 µM | MDA-MB-435 21.9 µM | MOLT-4 3.27 µM | Malme-3M 8.75 µM | NCI-H23 55 µM | NCI-H460 13.8 µM | NCI-H522 3.1 µM | NCI/ADR-RES 94.4 µM | OVCAR-3 20.6 µM | OVCAR-4 12.8 µM | OVCAR-8 27.2 µM | PC-3 25.6 µM | RPMI-8226 2.02 µM | RXF 393 14.8 µM | SF-268 22.2 µM | SF-295 21.6 µM | SF-539 10.9 µM | SK-MEL-28 19.8 µM | SK-MEL-2 41.9 µM | SK-MEL-5 34 µM | SK-OV-3 14.2 µM | SNB-75 11.6 µM | SW-620 15.5 µM | T47D 8.71 µM | TK-10 12.8 µM | U-251 26.3 µM | UACC-257 41.9 µM | UACC-62 16.6 µM
31.6 µM: HCT-15
